Measured values reported in the supplement of paper PMC10307832.

Key:
Assay in all cases: relative viability (nuclei count vs DMSO), 5 days (fraction); higher = more cells survive
COR-L23 = system: COR-L23
Outline: (§1)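 Relative viability is defined as nuclei in treated wells over nuclei in vehicle wells. Duplicate plates were run and medians reported. Lung cancer cell lines in 1536-well plates were dosed by pin tool one day after seeding, with one drug or with a fixed anchor-drug dose plus five library-drug doses (not always all listed) in √10 steps, and nuclei were counted after 5 days.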

ChaGo-K-1 = system: ChaGo-K-1
Outline: as §1

EMC-BAC-2 = system: EMC-BAC-2
Outline: as §1

EPLC-272H = system: EPLC-272H
Outline: as §1

H3255 = system: H3255
Outline: as §1

HCC-44 = system: HCC-44
Outline: as §1

HCC-827 = system: HCC-827
Outline: as §1

LU99A = system: LU99A
Outline: as §1

NCI-H1395 = system: NCI-H1395
Outline: as §1

NCI-H1651 = system: NCI-H1651
Outline: as §1

NCI-H1793 = system: NCI-H1793
Outline: as §1

NCI-H1944 = system: NCI-H1944
Outline: as §1

NCI-H2023 = system: NCI-H2023
Outline: as §1

NCI-H2085 = system: NCI-H2085
Outline: as §1

NCI-H2087 = system: NCI-H2087
Outline: as §1

NCI-H2405 = system: NCI-H2405
Outline: as §1

NCI-H520 = system: NCI-H520
Outline: as §1

NCI-H838 = system: NCI-H838
Outline: as §1

SK-MES-1 = system: SK-MES-1
Outline: as §1

O=c1cc(N2CCOCC2)oc2c(-c3cccc4c3sc3ccccc34)cccc12 + CC1(C)CCC(c2ccc(Cl)cc2)=C(CN2CCN(c3ccc(C(=O)NS(=O)(=O)c4ccc(N[C@H](CCN5CCOCC5)CSc5ccccc5)c(S(=O)(=O)C(F)(F)F)c4)cc3)CC2)C1 [Navitoclax] (partner 0.5 µM) was tested, and the relative viability (COR-L23; first compound 0.01 µM) was 1, the relative viability (COR-L23; first compound 0.03162 µM) was 1.02 and the relative viability (COR-L23; first compound 0.1 µM) was 0.976. It also gave a relative viability (COR-L23; first compound 0.3162 µM) of 1.05, a relative viability (COR-L23; first compound 1 µM) of 0.98 and a relative viability (ChaGo-K-1; first compound 0.01 µM) of 1.04. It also gave a relative viability (ChaGo-K-1; first compound 0.03162 µM) of 0.927, a relative viability (ChaGo-K-1; first compound 0.1 µM) of 0.729 and a relative viability (ChaGo-K-1; first compound 0.3162 µM) of 1.06. For the same compound, the relative viability (ChaGo-K-1; first compound 1 µM) was 0.971, the relative viability (EMC-BAC-2; first compound 0.01 µM) was 1.09 and the relative viability (EMC-BAC-2; first compound 0.03162 µM) was 1.13. It also gave a relative viability (EMC-BAC-2; first compound 0.1 µM) of 1.18, a relative viability (EMC-BAC-2; first compound 0.3162 µM) of 1.16 and a relative viability (EMC-BAC-2; first compound 1 µM) of 1.17. For the same compound, the relative viability (EPLC-272H; first compound 0.01 µM) was 1.11, the relative viability (EPLC-272H; first compound 0.03162 µM) was 1.05 and the relative viability (EPLC-272H; first compound 0.3162 µM) was 1.04. It also gave a relative viability (EPLC-272H; first compound 1 µM) of 1.08, a relative viability (H3255; first compound 0.01 µM) of 0.557 and a relative viability (H3255; first compound 0.03162 µM) of 0.5. The relative viability (H3255; first compound 0.1 µM) was 0.555, the relative viability (H3255; first compound 0.3162 µM) was 0.54 and the relative viability (H3255; first compound 1 µM) was 0.527. It also gave a relative viability (HCC-44; first compound 0.01 µM) of 0.854, a relative viability (HCC-44; first compound 0.03162 µM) of 0.94 and a relative viability (HCC-44; first compound 0.1 µM) of 0.963. The relative viability (HCC-44; first compound 0.3162 µM) was 0.887, the relative viability (HCC-44; first compound 1 µM) was 0.931 and the relative viability (HCC-827; first compound 0.01 µM) was 1.02. For the same compound, the relative viability (HCC-827; first compound 0.03162 µM) was 0.996, the relative viability (HCC-827; first compound 0.1 µM) was 1.01 and the relative viability (HCC-827; first compound 0.3162 µM) was 1.07. The relative viability (HCC-827; first compound 1 µM) was 1.02, the relative viability (LU99A; first compound 0.01 µM) was 0.887 and the relative viability (LU99A; first compound 0.03162 µM) was 0.955. It also gave a relative viability (LU99A; first compound 0.1 µM) of 0.884, a relative viability (LU99A; first compound 0.3162 µM) of 0.773 and a relative viability (LU99A; first compound 1 µM) of 0.898. The relative viability (NCI-H1395; first compound 0.01 µM) was 1.08, the relative viability (NCI-H1395; first compound 0.03162 µM) was 1.16 and the relative viability (NCI-H1395; first compound 0.1 µM) was 1.38. It also gave a relative viability (NCI-H1395; first compound 0.3162 µM) of 1.17, a relative viability (NCI-H1395; first compound 1 µM) of 1.23 and a relative viability (NCI-H1651; first compound 0.01 µM) of 1.07. The relative viability (NCI-H1651; first compound 0.03162 µM) was 0.997, the relative viability (NCI-H1651; first compound 0.1 µM) was 1.01 and the relative viability (NCI-H1651; first compound 0.3162 µM) was 0.991. The relative viability (NCI-H1651; first compound 1 µM) was 0.927, the relative viability (NCI-H1793; first compound 0.01 µM) was 0.471 and the relative viability (NCI-H1793; first compound 0.03162 µM) was 0.468. For the same compound, the relative viability (NCI-H1793; first compound 0.1 µM) was 0.54, the relative viability (NCI-H1793; first compound 0.3162 µM) was 0.367 and the relative viability (NCI-H1793; first compound 1 µM) was 0.382. The relative viability (NCI-H1944; first compound 0.01 µM) was 1.03, the relative viability (NCI-H1944; first compound 0.03162 µM) was 1.1 and the relative viability (NCI-H1944; first compound 0.1 µM) was 1.07. The relative viability (NCI-H1944; first compound 0.3162 µM) was 1.09, the relative viability (NCI-H1944; first compound 1 µM) was 1.05 and the relative viability (NCI-H2023; first compound 0.01 µM) was 1.07. It also gave a relative viability (NCI-H2023; first compound 0.03162 µM) of 0.912, a relative viability (NCI-H2023; first compound 0.1 µM) of 1 and a relative viability (NCI-H2023; first compound 0.3162 µM) of 0.99. The relative viability (NCI-H2023; first compound 1 µM) was 1.01, the relative viability (NCI-H2085; first compound 0.01 µM) was 1.08 and the relative viability (NCI-H2085; first compound 0.03162 µM) was 1.19. The relative viability (NCI-H2085; first compound 0.1 µM) was 1.17, the relative viability (NCI-H2085; first compound 0.3162 µM) was 1.08 and the relative viability (NCI-H2085; first compound 1 µM) was 1.02. For the same compound, the relative viability (NCI-H2087; first compound 0.01 µM) was 0.929, the relative viability (NCI-H2087; first compound 0.03162 µM) was 0.904 and the relative viability (NCI-H2087; first compound 0.1 µM) was 1.01. It also gave a relative viability (NCI-H2087; first compound 0.3162 µM) of 0.919, a relative viability (NCI-H2087; first compound 1 µM) of 0.857 and a relative viability (NCI-H2405; first compound 0.01 µM) of 0.837. The relative viability (NCI-H2405; first compound 0.03162 µM) was 1.01, the relative viability (NCI-H2405; first compound 0.1 µM) was 0.838 and the relative viability (NCI-H2405; first compound 0.3162 µM) was 0.811. It also gave a relative viability (NCI-H2405; first compound 1 µM) of 0.95, a relative viability (NCI-H520; first compound 0.01 µM) of 1.11 and a relative viability (NCI-H520; first compound 0.03162 µM) of 1.14. It also gave a relative viability (NCI-H520; first compound 0.1 µM) of 1.18, a relative viability (NCI-H520; first compound 0.3162 µM) of 1.05 and a relative viability (NCI-H520; first compound 1 µM) of 1.22. It also gave a relative viability (NCI-H838; first compound 0.01 µM) of 1.17, a relative viability (NCI-H838; first compound 0.03162 µM) of 1.13 and a relative viability (NCI-H838; first compound 0.1 µM) of 1.13. It also gave a relative viability (NCI-H838; first compound 0.3162 µM) of 1.1, a relative viability (NCI-H838; first compound 1 µM) of 1.1 and a relative viability (SK-MES-1; first compound 0.01 µM) of 1.28. For the same compound, the relative viability (SK-MES-1; first compound 0.03162 µM) was 1.26, the relative viability (SK-MES-1; first compound 0.1 µM) was 1.43 and the relative viability (SK-MES-1; first compound 0.3162 µM) was 1.26. It also gave a relative viability (SK-MES-1; first compound 1 µM) of 1.13.
